Earlier results as cited in publication PMC7866862, “Screening, Optimization, and Bioavailability Research of Natural Deep Eutectic Solvent Extracts from Radix Pueraria” (Molecules, 2021).

Assays:
[1] = parameters: method as in PMID 28165806
[2] = parameters: method as in PMID 30275390; settings: oral, NSSPE study

O=c1c(-c2ccc(O)cc2)coc2c([C@@H]3O[C@H](CO)[C@@H](O)[C@H](O)[C@H]3O)c(O)ccc12 [PUE, 8-β-D-glucopyranose-4′,7-dihydroxyisoflavone]
Oral bioavailability of PUE [1]: about 7% | Cmax of PUE [2]: 634.17 ng/mL
